Legend:
[1] = Phase 1 cross-over study: pharmacokinetics, biodistribution, dosimetry, excretion; assay type: in vivo, human
Description: (§1) Pharmacokinetics, Biodistribution, Dosimetry, Metabolism & Excretion of compound represented by Formula (1) and Formula (2). Methods: Fourteen subjects (7 metastatic prostate cancer patients and 7 healthy, normal males) were enrolled in a phase 1, single-blind, randomized, cross-over study in which subjects were randomly administered a single dose (740 MBq; 20 mCi) of a compound represented by Formula (1) and a similar chemical analog, a compound represented by Formula (2), 14 days apart. […] (FIGS. 1 and 2A)

[2] = tested on: lesions in lymph nodes and bone of men with prostate cancer; test: Phase 1 cross-over study: whole-body and SPECT/CT lesion imaging; assay type: in vivo, human; conditions: patient with prior prostatectomy and rising PSA, FIG. 2C
Description: as §1

[3] = target: PSMA (Homo sapiens, UniProt Q04609); test: In vitro binding studies to PSMA; conditions: read-out: affinity of binding to PSMA
PSMA, sequence (Q04609 whole entry): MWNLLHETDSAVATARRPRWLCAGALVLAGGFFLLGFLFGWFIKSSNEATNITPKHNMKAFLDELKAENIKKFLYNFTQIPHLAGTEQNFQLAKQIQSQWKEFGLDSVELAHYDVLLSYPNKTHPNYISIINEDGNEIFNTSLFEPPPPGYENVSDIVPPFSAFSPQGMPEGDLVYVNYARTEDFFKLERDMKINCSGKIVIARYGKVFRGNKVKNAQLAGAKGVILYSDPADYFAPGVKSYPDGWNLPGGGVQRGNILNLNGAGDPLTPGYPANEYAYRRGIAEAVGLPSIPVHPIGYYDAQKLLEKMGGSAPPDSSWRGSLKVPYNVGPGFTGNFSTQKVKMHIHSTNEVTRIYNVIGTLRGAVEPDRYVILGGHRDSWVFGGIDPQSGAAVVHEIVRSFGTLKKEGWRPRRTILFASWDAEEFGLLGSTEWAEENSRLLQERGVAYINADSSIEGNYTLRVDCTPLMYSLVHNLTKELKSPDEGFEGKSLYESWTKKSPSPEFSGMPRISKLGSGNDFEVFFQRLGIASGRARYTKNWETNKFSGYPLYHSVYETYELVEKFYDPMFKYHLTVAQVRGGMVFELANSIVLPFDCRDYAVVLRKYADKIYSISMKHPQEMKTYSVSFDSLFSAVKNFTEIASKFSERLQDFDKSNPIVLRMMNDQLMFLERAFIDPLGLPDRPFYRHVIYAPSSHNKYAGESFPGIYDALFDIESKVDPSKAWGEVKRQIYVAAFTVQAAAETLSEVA
Description: As illustrated, the dimeric backbone of both Formula (1) and Formula (2) compounds contain carboxylate residues that bind to the basic substrate binding pockets of the protein. The radiolabel chelator is attached to the side chain carboxyl residue (Formula (1)) or the side chain amine group (Formula (2)) through an intervening linker.

Row | period over which compound is cleared from blood ([1]; FIG. 1A) | physiological clearance rate ([1]; Formula (2) compared with Formula (1)) | rate of clearance from blood ([1]; Formula (2) compared with Formula (1), FIG. 1A) | clearance from these organs ([1]; Formula (2) compared with Formula (1), full body scans over 24 hours) | estimated radiation dose (dosimetry) ([1]; single dose 740 MBq (20 mCi)) | amount excreted in urine ([1]; urine samples over 30 hours post administration, Formula (2) compared with Formula (1), FIG. 1B) | Kd [3] [µM] | Structure (SMILES) | tissues of accumulation ([1]; in vivo pharmacokinetic and biodistribution studies) | detection of metastatic lesions compared with bone scan [2]
1 | about 1500 minutes | more rapid | greater | clears more rapidly | within the clinically acceptable range | significantly greater amount |  | N[C@@H](CCCC[N+]12Cc3n(CC(=O)O)cc[n+]3[99Tc-2]1[n+]1ccn(CC(=O)O)c1C2)C(=O)NCCCCC(NC(=O)NC(CCC(=O)O)C(=O)O)C(=O)O.[C-]#[O+].[C-]#[O+].[C-]#[O+] (stereo partly drawn) [Formula (2)] | liver, kidneys and salivary glands as well as the urinary bladder and prostate tissue | identified multiple foci of metastatic cancer not seen in the bone scan
2 |  |  |  |  |  |  | 0.031 | N[C@@H](CCCC[N+]12Cc3n(CC(=O)O)cc[n+]3[Tc-2]1[n+]1ccn(CC(=O)O)c1C2)C(=O)NCCCCC(NC(=O)NC(CCC(=O)O)C(=O)O)C(=O)O.[C-]#[O+].[C-]#[O+].[C-]#[O+] (stereo partly drawn) [Formula (2)] |  | 
